# Assay results from patent EP1297826A1, “Nasal pharmaceutical compositions containing a NK-2 antagonist” (Menarini Ricerche S.p.A., priority 2001, dated 2003).
# Where two headings read alike, the source gives them in different places.
# Key:
# [1] = human, in vivo
# [2] = rat, in vivo
# [3] = dog, in vivo
# [4] = in vivo
# visceral hyperalgesia = details: animal models of IBS; cited from earlier work
# [5] = rat, in vivo; cited from earlier work
# [6] = rat, in vivo; cited from earlier work; remark: listed apart in the source
substance,measurement,setting,value
cyclo ( [Asn(β--D-2-deoxy-2-acetamido-Glc)-Asp-Trp-Phe-Dap-Leu]cyclo(2β--5β-)) [nepadutant],oral bioavailability,[1],1%
same,Maximum bioavailability,[2],≤ 20%
same,Maximum bioavailability,[3],≤ 2%
same,Maximum bioavailability,[4],≤ 2%
same,visceral hyperalgesia,visceral hyperalgesia,corrects visceral hyperalgesia
same,oral bioavailability,[5],1%
same,absoption,[6],> 80%
